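Each compound was tested at five concentrations against cells in 96-well plates for 48 hours. GI50 = concentration required for 50% inhibition of growth.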 Calls of active or inactive are those of the source. Rule as the data show it: active = GI50 up to about 1.1 µM and inactive = higher.
Legend:
Experiment in all cases: DTP human tumour cell line panel, 48 h
OVCAR-8 = test system: OVCAR-8
RXF 393 = test system: RXF 393
M14 = test system: M14
CAKI-1 = test system: CAKI-1
T47D = test system: T47D
SK-MEL-28 = test system: SK-MEL-28
DU-145 = test system: DU-145
NCI-H460 = test system: NCI-H460
UO-31 = test system: UO-31
HOP-62 = test system: HOP-62
NCI-H23 = test system: NCI-H23
HCT-15 = test system: HCT-15
MDA-MB-231 = test system: MDA-MB-231
IGROV-1 = test system: IGROV-1
OVCAR-5 = test system: OVCAR-5
HL-60 = test system: HL-60
SK-MEL-5 = test system: SK-MEL-5
SNB-75 = test system: SNB-75
COLO 205 = test system: COLO 205

SMILES | GI50 (OVCAR-8) | GI50 (RXF 393) | GI50 (M14) | GI50 (CAKI-1) | GI50 (T47D) | GI50 (SK-MEL-28) | GI50 (DU-145) | GI50 (NCI-H460) | GI50 (UO-31) | GI50 (HOP-62) | GI50 (NCI-H23) | GI50 (HCT-15) [µM] | GI50 (MDA-MB-231) | GI50 (IGROV-1) | GI50 (OVCAR-5) | GI50 (HL-60) | GI50 (SK-MEL-5) | GI50 (SNB-75) | GI50 (COLO 205)
COc1cc(C=C2C(C)=NN(c3cccc(Cl)c3)C23C(Cl)C(=O)N3c2nc3ccccc3s2)ccc1O (configuration not stated) | 16.8 µM (inactive) | 13.5 µM (inactive) | 11.6 µM (inactive) | 26.3 µM (inactive) | 27 µM (inactive) | 23.3 µM (inactive) | 21.9 µM (inactive) | 25.4 µM (inactive) | 20.7 µM (inactive) | 20.4 µM (inactive) | 18.4 µM (inactive) | 20.7 | 4.08 µM (inactive) | 15.8 µM (inactive) | 20.7 µM (inactive) | 0.546 µM (active) | 17.2 µM (inactive) | – | –
CN=C(n1ccnc1)n1ccnc1 | > 100 µM (inactive) | > 100 µM (inactive) | > 100 µM (inactive) | > 100 µM (inactive) | > 100 µM (inactive) | > 100 µM (inactive) | > 100 µM (inactive) | > 100 µM (inactive) | > 100 µM (inactive) | – | > 100 µM (inactive) | > 100 | > 100 µM (inactive) | > 100 µM (inactive) | > 100 µM (inactive) | > 100 µM (inactive) | > 100 µM (inactive) | > 100 µM (inactive) | > 100 µM (inactive)
Cc1ccc(/C=N/Nc2nc3ccccc3s2)s1 | > 100 µM (inactive) | 82.6 µM (inactive) | > 100 µM (inactive) | 79.3 µM (inactive) | 4.05 µM (inactive) | > 100 µM (inactive) | > 100 µM (inactive) | – | 51.6 µM (inactive) | 26.2 µM (inactive) | > 100 µM (inactive) | 19.4 | 24.7 µM (inactive) | 18.8 µM (inactive) | > 100 µM (inactive) | > 100 µM (inactive) | 38.9 µM (inactive) | 46.3 µM (inactive) | > 100 µM (inactive)
CC1=C(c2ccc(C)cc2)NC(=S)C(C)C(c2ccc(C)cc2)=N1 (configuration not stated) | > 100 µM (inactive) | 14.7 µM (inactive) | – | > 100 µM (inactive) | 37.1 µM (inactive) | 47.1 µM (inactive) | > 100 µM (inactive) | > 100 µM (inactive) | 40.5 µM (inactive) | 85.7 µM (inactive) | 37 µM (inactive) | 82.8 | > 100 µM (inactive) | > 100 µM (inactive) | > 100 µM (inactive) | 30.3 µM (inactive) | 60 µM (inactive) | > 100 µM (inactive) | > 100 µM (inactive)
COC(=O)c1c(O)ccc2c1C1(Cc3ccccc3C1=O)C(O)O2 (configuration not stated) | 14.5 µM (inactive) | 51.5 µM (inactive) | 17.3 µM (inactive) | 16.1 µM (inactive) | 18.2 µM (inactive) | 36.9 µM (inactive) | 24.4 µM (inactive) | 8.85 µM (inactive) | 10.1 µM (inactive) | 13.8 µM (inactive) | 33.2 µM (inactive) | 13.3 | 17.3 µM (inactive) | 1.94 µM (inactive) | 17.5 µM (inactive) | 4.02 µM (inactive) | 34.3 µM (inactive) | – | 35.6 µM (inactive)
Nc1n[nH]c2c(C(=O)Nc3ccc(Cl)cc3)c(N)n(N)c(=O)c12 | > 100 µM (inactive) | > 100 µM (inactive) | > 100 µM (inactive) | > 100 µM (inactive) | > 100 µM (inactive) | > 100 µM (inactive) | > 100 µM (inactive) | > 100 µM (inactive) | > 100 µM (inactive) | – | > 100 µM (inactive) | > 100 | > 100 µM (inactive) | > 100 µM (inactive) | > 100 µM (inactive) | > 100 µM (inactive) | > 100 µM (inactive) | > 100 µM (inactive) | > 100 µM (inactive)
Cc1cc2[n-][n+]3ncc(-c4ccccc4)n3c2cc1[N+](=O)[O-] | – | > 100 µM (inactive) | – | > 100 µM (inactive) | > 100 µM (inactive) | > 100 µM (inactive) | > 100 µM (inactive) | > 100 µM (inactive) | > 100 µM (inactive) | > 100 µM (inactive) | – | > 100 | > 100 µM (inactive) | > 100 µM (inactive) | > 100 µM (inactive) | > 100 µM (inactive) | > 100 µM (inactive) | > 100 µM (inactive) | > 100 µM (inactive)
O=C1NC(N2CCCC(CO)C2)=N/C1=C\c1ccc(O)cc1 (configuration not stated) | > 100 µM (inactive) | > 100 µM (inactive) | > 100 µM (inactive) | > 100 µM (inactive) | 42 µM (inactive) | > 100 µM (inactive) | > 100 µM (inactive) | – | > 100 µM (inactive) | > 100 µM (inactive) | > 100 µM (inactive) | > 100 | > 100 µM (inactive) | > 100 µM (inactive) | > 100 µM (inactive) | > 100 µM (inactive) | > 100 µM (inactive) | > 100 µM (inactive) | > 100 µM (inactive)
Cc1nc2ccccc2c(-n2cccn2)c1CCn1cccn1 | > 100 µM (inactive) | > 100 µM (inactive) | > 100 µM (inactive) | > 100 µM (inactive) | > 100 µM (inactive) | > 100 µM (inactive) | > 100 µM (inactive) | > 100 µM (inactive) | 1.77 µM (inactive) | > 100 µM (inactive) | > 100 µM (inactive) | > 100 | 51.4 µM (inactive) | 85.9 µM (inactive) | > 100 µM (inactive) | > 100 µM (inactive) | 46.6 µM (inactive) | – | 96.6 µM (inactive)
Cc1ccc2c(c1)CC1(Cc3c(C)cccc3C1=O)C2=O (configuration not stated) | > 100 µM (inactive) | > 100 µM (inactive) | > 100 µM (inactive) | – | > 100 µM (inactive) | > 100 µM (inactive) | > 100 µM (inactive) | > 100 µM (inactive) | > 100 µM (inactive) | 28.5 µM (inactive) | > 100 µM (inactive) | > 100 | > 100 µM (inactive) | > 100 µM (inactive) | > 100 µM (inactive) | > 100 µM (inactive) | > 100 µM (inactive) | 36.7 µM (inactive) | > 100 µM (inactive)
CC(=O)C(=[N+]=[N-])C(=O)OCCOC(=O)C(=[N+]=[N-])C(C)=O | > 1 µM (active) | > 1 µM (active) | > 1 µM (active) | – | > 1 µM (active) | > 1 µM (active) | > 1 µM (active) | > 1 µM (active) | > 1 µM (active) | > 1 µM (active) | > 1 µM (active) | > 1 | > 1 µM (active) | > 1 µM (active) | > 1 µM (active) | > 1 µM (active) | > 1 µM (active) | > 1 µM (active) | –
Cc1n[nH]c(=O)n1/N=C\CC/C=N\n1c(C)n[nH]c1=O | > 100 µM (inactive) | > 100 µM (inactive) | > 100 µM (inactive) | > 100 µM (inactive) | > 100 µM (inactive) | > 100 µM (inactive) | > 100 µM (inactive) | – | > 100 µM (inactive) | > 100 µM (inactive) | > 100 µM (inactive) | > 100 | > 100 µM (inactive) | > 100 µM (inactive) | > 100 µM (inactive) | > 100 µM (inactive) | > 100 µM (inactive) | > 100 µM (inactive) | > 100 µM (inactive)
[N-]=[N+]=C1N=CN=C1c1nc[nH]n1 | 21.4 µM (inactive) | 48.8 µM (inactive) | 40.6 µM (inactive) | 6.31 µM (inactive) | 17.4 µM (inactive) | 76.7 µM (inactive) | 48.5 µM (inactive) | – | 19.6 µM (inactive) | 35.7 µM (inactive) | 34.1 µM (inactive) | 63 | 29 µM (inactive) | 29 µM (inactive) | – | 5.83 µM (inactive) | 57.8 µM (inactive) | 32.3 µM (inactive) | 45.1 µM (inactive)
C[C@]1(CO)[C@H]2CC[C@@]34C=C[C@@](CO)(CC[C@H]3[C@]2(C)CC[C@H]1O)C4 | 31.1 µM (inactive) | 36.9 µM (inactive) | 73.6 µM (inactive) | 30.9 µM (inactive) | 12.9 µM (inactive) | > 100 µM (inactive) | 42.2 µM (inactive) | – | 35.4 µM (inactive) | 62.2 µM (inactive) | 40.4 µM (inactive) | 36.5 | 28.2 µM (inactive) | 25.4 µM (inactive) | > 100 µM (inactive) | 37.4 µM (inactive) | 12.9 µM (inactive) | 17.9 µM (inactive) | 26.4 µM (inactive)
CC(C)(C)OC(=O)NCC(c1c[nH]c2ccc(Br)cc12)c1c[nH]c2ccc(Br)cc12 | 13.4 µM (inactive) | 11.6 µM (inactive) | 3.56 µM (inactive) | 11 µM (inactive) | 10 µM (inactive) | 16.3 µM (inactive) | 11.7 µM (inactive) | – | 7.11 µM (inactive) | 12.7 µM (inactive) | 4.33 µM (inactive) | 7.73 | 10.5 µM (inactive) | 4.07 µM (inactive) | 7.48 µM (inactive) | 11.7 µM (inactive) | 6.38 µM (inactive) | – | 5 µM (inactive)
BC(=O)NC(CC(C)C)C(=O)NC1c2ccsc2C(=O)C1O.CN(C)C (configuration not stated) | > 100 µM (inactive) | > 100 µM (inactive) | > 100 µM (inactive) | – | > 100 µM (inactive) | > 100 µM (inactive) | > 100 µM (inactive) | > 100 µM (inactive) | > 100 µM (inactive) | > 100 µM (inactive) | > 100 µM (inactive) | > 100 | > 100 µM (inactive) | > 100 µM (inactive) | > 100 µM (inactive) | > 100 µM (inactive) | > 100 µM (inactive) | > 100 µM (inactive) | > 100 µM (inactive)
